Data reported in US7517874B2 (priority 2007, dated 2009).
Where two headings read alike, the source gives them in different places.

Key:
[1] = molecular target: human CB1 receptor (hCB1) (Homo sapiens, UniProt P21554); test: cell-based; type: cell-based
How it was run: (§1)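 Readout: LANCE TR-FRET cAMP, back-calculated from a concurrent standard curve and scaled between forskolin-only and forskolin + 1 μM CP55,940 wells. EC50 and intrinsic activity came from four-parameter fits.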

[2] = molecular target: T1, rat CB2 receptor (rCB2) (Rattus norvegicus, UniProt Q9QZN9); test: cell-based; type: cell-based; conditions: for +/− RCB2: agonist or inverse agonist at rCB2
T1 sequence (Q9QZN9 1-360): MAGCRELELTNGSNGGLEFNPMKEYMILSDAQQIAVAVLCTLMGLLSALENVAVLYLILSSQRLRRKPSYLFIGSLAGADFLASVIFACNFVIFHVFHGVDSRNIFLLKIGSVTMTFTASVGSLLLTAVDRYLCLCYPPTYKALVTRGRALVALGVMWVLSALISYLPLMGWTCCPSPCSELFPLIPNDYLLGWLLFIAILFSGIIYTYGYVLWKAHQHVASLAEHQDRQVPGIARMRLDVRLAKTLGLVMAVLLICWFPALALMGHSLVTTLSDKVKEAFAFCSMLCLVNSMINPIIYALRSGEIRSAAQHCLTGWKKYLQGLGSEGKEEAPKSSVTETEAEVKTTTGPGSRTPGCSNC
How it was run: as §1

[3] = groups >100 nM-10 μM and >10 μM, cAMP, CHO-K1 hCB1, read-out: EC50 HCB1

Chain of human CB1 receptor (hCB1) (P21554 whole entry): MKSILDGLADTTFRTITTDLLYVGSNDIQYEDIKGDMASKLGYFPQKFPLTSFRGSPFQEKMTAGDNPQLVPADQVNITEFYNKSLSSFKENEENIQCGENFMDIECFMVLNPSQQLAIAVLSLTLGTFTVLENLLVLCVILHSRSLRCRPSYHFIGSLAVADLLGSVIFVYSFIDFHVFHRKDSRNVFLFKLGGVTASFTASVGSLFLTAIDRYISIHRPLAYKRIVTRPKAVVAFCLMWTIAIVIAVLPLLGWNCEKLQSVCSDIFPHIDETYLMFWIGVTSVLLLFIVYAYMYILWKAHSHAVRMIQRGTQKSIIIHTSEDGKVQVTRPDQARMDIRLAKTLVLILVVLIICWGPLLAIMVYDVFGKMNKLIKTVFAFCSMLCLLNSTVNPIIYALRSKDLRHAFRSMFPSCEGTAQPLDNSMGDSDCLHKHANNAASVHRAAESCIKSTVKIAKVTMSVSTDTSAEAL

CN1CCn2c(-c3ccccc3)nc(C(=O)N3CCOCC3)c2C1 [Compound 69, (7-methyl-3-phenyl-5,6,7,8-tetrahydroimidazo[1,5-a]pyrazin-1-yl)(morpholino)methanone]
EC50 [1, 3]: > 10000 nM | +/− RCB2 [2]: −

CC(C)CN1CCn2c(-c3ccccc3)nc(C(=O)N3CCOCC3)c2C1 [Compound 70, (7-isobutyl-3-phenyl-5,6,7,8-tetrahydroimidazo[1,5-a]pyrazin-1-yl)(morpholino)methanone]
EC50 [1, 3]: > 10000 nM | +/− RCB2 [2]: −

CNC(=O)[C@@H](NC(=O)c1nc(-c2ccccc2)n2c1CN(Cc1cccn1C)CC2)C(C)(C)C [Compound 71, (S)-N-(3,3-dimethyl-1-(methylamino)-1-oxobutan-2-yl)-7-((1-methyl-1H-pyrrol-2-yl)methyl)-3-phenyl-5,6,7,8-tetrahydroimidazo[1,5-a]pyrazine-1-carboxamide]
EC50 [1]: > 10000 nM | +/− RCB2 [2]: −

CNC(=O)[C@@H](NC(=O)c1nc(-c2ccccc2)n2c1CN(Cc1nccs1)CC2)C(C)(C)C [Compound 72, (S)-N-(3,3-dimethyl-1-(methylamino)-1-oxobutan-2-yl)-3-phenyl-7-(thiazol-2-ylmethyl)-5,6,7,8-tetrahydroimidazo[1,5-a]pyrazine-1-carboxamide]
EC50 [1]: > 10000 nM | EC50 [2]: > 10000 nM

CNC(=O)[C@@H](NC(=O)c1nc(-c2csc3ccccc23)n2c1CN(C)CC2)C(C)(C)C [Compound 75, (S)-3-(benzo[b]thiophen-3-yl)-N-(3,3-dimethyl-1-(methylamino)-1-oxobutan-2-yl)-7-methyl-5,6,7,8-tetrahydroimidazo[1,5-a]pyrazine-1-carboxamide]
EC50 [1]: > 10000 nM | +/− RCB2 [2]: +

CNC(=O)[C@@H](NC(=O)c1nc(-c2ccsc2)n2c1CN(Cc1cncnc1)CC2)C(C)(C)C [Compound 76, (S)-N-(3,3-dimethyl-1-(methylamino)-1-oxobutan-2-yl)-7-(pyrimidin-5-ylmethyl)-3-(thiophen-3-yl)-5,6,7,8-tetrahydroimidazo[1,5-a]pyrazine-1-carboxamide]
EC50 [1]: > 10000 nM | +/− RCB2 [2]: +

CNC(=O)[C@H](C)NC(=O)c1nc(-c2ccccc2)n2c1CN(Cc1cncnc1)CC2 [Compound 77, (S)-N-(1-(methylamino)-1-oxopropan-2-yl)-3-phenyl-7-(pyrimidin-5-ylmethyl)-5,6,7,8-tetrahydroimidazo[1,5-a]pyrazine-1-carboxamide]
EC50 [1]: > 10000 nM | EC50 [2]: > 10000 nM

CN1CCn2c(-c3ccccc3)nc(C(=O)N[C@H](C(=O)N(C)C)C(C)(C)C)c2C1 [Compound 79, (S)-N-(1-(dimethylamino)-3,3-dimethyl-1-oxobutan-2-yl)-7-methyl-3-phenyl-5,6,7,8-tetrahydroimidazo[1,5-a]pyrazine-1-carboxamide]
EC50 [1]: > 10000 nM | +/− RCB2 [2]: −

CC(C)CN1CCn2c(-c3ccccc3)nc(C(=O)N[C@H](C(=O)N(C)C)C(C)(C)C)c2C1 [Compound 80, (S)-N-(1-(dimethylamino)-3,3-dimethyl-1-oxobutan-2-yl)-7-isobutyl-3-phenyl-5,6,7,8-tetrahydroimidazo[1,5-a]pyrazine-1-carboxamide]
EC50 [1]: > 10000 nM | +/− RCB2 [2]: −

CN1CCn2c(-c3ccccc3)nc(C(=O)NCC(C)(C)CO)c2C1 [Compound 82, N-(3-hydroxy-2,2-dimethylpropyl)-7-methyl-3-phenyl-5,6,7,8-tetrahydroimidazo[1,5-a]pyrazine-1-carboxamide]
EC50 [1, 3]: > 10000 nM | EC50 ([2]; groups >100 nM-10 μM and >10 μM, cAMP, CHO-K1 rCB2, read-out: EC50 RCB2): > 10000 nM

CNC(=O)[C@@H](NC(=O)c1nc(-c2ccccc2)n2c1CN(C(C)C)CC2)C(C)(C)C [Compound 85, (S)-N-(3,3-dimethyl-1-(methylamino)-1-oxobutan-2-yl)-7-isopropyl-3-phenyl-5,6,7,8-tetrahydroimidazo[1,5-a]pyrazine-1-carboxamide]
EC50 [1]: > 10000 nM | +/− RCB2 [2]: −

COC(=O)[C@@H](NC(=O)c1nc(-c2ccccc2)n2c1CN(C)CC2)C(C)(C)C [Compound 86, (S)-methyl 3,3-dimethyl-2-(7-methyl-3-phenyl-5,6,7,8-tetrahydro-imidazo[1,5-a]pyrazine-1-carboxamido)butanoate]
EC50 [1]: > 10000 nM | +/− RCB2 [2]: +

Cc1noc([C@@H](NC(=O)c2nc(-c3ccccc3)n3c2CN(C)CC3)C(C)(C)C)n1 [Compound 87, (S)-N-(2,2-dimethyl-1-(3-methyl-1,2,4-oxadiazol-5-yl)propyl)-7-methyl-3-phenyl-5,6,7,8-tetrahydroimidazo[1,5-a]pyrazine-1-carboxamide]
EC50 [1]: > 10000 nM | +/− RCB2 [2]: −

Cc1noc([C@@H](NC(=O)c2nc(-c3ccccc3)n3c2CN(CC2CC2)CC3)C(C)(C)C)n1 [Compound 88, (S)-7-(cyclopropylmethyl)-N-(2,2-dimethyl-1-(3-methyl-1,2,4-oxadiazol-5-yl)propyl)-3-phenyl-5,6,7,8-tetrahydroimidazo[1,5-a]pyrazine-1-carboxamide]
EC50 [1]: > 10000 nM | +/− RCB2 [2]: −

Cc1noc([C@@H](NC(=O)c2nc(-c3ccccc3)n3c2CN(C(C)C)CC3)C(C)(C)C)n1 [Compound 89, (S)-N-(2,2-dimethyl-1-(3-methyl-1,2,4-oxadiazol-5-yl)propyl)-7-isopropyl-3-phenyl-5,6,7,8-tetrahydroimidazo[1,5-a]pyrazine-1-carboxamide]
EC50 [1]: > 10000 nM | +/− RCB2 [2]: −

Cc1noc([C@@H](NC(=O)c2nc(-c3ccccc3)n3c2CN(CC(C)C)CC3)C(C)(C)C)n1 [Compound 90, (S)-N-(2,2-dimethyl-1-(3-methyl-1,2,4-oxadiazol-5-yl)propyl)-7-isobutyl-3-phenyl-5,6,7,8-tetrahydroimidazo[1,5-a]pyrazine-1-carboxamide]
EC50 [1]: > 10000 nM | +/− RCB2 [2]: −

CNC(=O)[C@@H](NC(=O)c1nc(-c2ccccc2)n2c1CN(S(C)(=O)=O)CC2)C(C)(C)C [Compound 92, (S)-N-(3,3-dimethyl-1-(methylamino)-1-oxobutan-2-yl)-7-(methylsulfonyl)-3-phenyl-5,6,7,8-tetrahydroimidazo[1,5-a]pyrazine-1-carboxamide]
EC50 [1]: > 10000 nM | +/− RCB2 [2]: −

CNC(=O)[C@@H](NC(=O)c1nc(-c2ccccc2)n2c1CN(S(=O)(=O)c1ccc(F)cc1)CC2)C(C)(C)C [Compound 93, (S)-N-(3,3-dimethyl-1-(methylamino)-1-oxobutan-2-yl)-7-(4-fluorophenylsulfonyl)-3-phenyl-5,6,7,8-tetrahydroimidazo[1,5-a]pyrazine-1-carboxamide]
EC50 [1]: > 10000 nM | +/− RCB2 [2]: −

CNC(=O)[C@@H](NC(=O)c1nc(-c2ccccc2)n2c1CN(S(=O)(=O)C(C)C)CC2)C(C)(C)C [Compound 94, (S)-N-(3,3-dimethyl-1-(methylamino)-1-oxobutan-2-yl)-7-(isopropylsulfonyl)-3-phenyl-5,6,7,8-tetrahydroimidazo[1,5-a]pyrazine-1-carboxamide]
EC50 [1]: > 10000 nM | +/− RCB2 [2]: −

CNC(=O)[C@@H](NC(=O)c1nc(-c2ccccc2)n2c1CN(S(=O)(=O)CC(C)C)CC2)C(C)(C)C [Compound 95, (S)-N-(3,3-dimethyl-1-(methylamino)-1-oxobutan-2-yl)-7-(isobutylsulfonyl)-3-phenyl-5,6,7,8-tetrahydroimidazo[1,5-a]pyrazine-1-carboxamide]
EC50 [1]: > 10000 nM | +/− RCB2 [2]: −

CNC(=O)[C@@H](NC(=O)c1nc(-c2ccccc2)n2c1CN(S(=O)(=O)c1ccccc1)CC2)C(C)(C)C [Compound 96, (S)-N-(3,3-dimethyl-1-(methylamino)-1-oxobutan-2-yl)-3-phenyl-7-(phenylsulfonyl)-5,6,7,8-tetrahydroimidazo[1,5-a]pyrazine-1-carboxamide]
EC50 [1]: > 10000 nM | +/− RCB2 [2]: −

CNC(=O)[C@@H](NC(=O)c1nc(-c2ccccc2)n2c1CN(S(=O)(=O)c1ccccc1[N+](=O)[O-])CC2)C(C)(C)C [Compound 97, (S)-N-(3,3-dimethyl-1-(methylamino)-1-oxobutan-2-yl)-7-(2-nitrophenylsulfonyl)-3-phenyl-5,6,7,8-tetrahydroimidazo[1,5-a]pyrazine-1-carboxamide]
EC50 [1]: > 10000 nM | +/− RCB2 [2]: −

CNC(=O)[C@@H](NC(=O)c1nc(-c2ccccc2)n2c1CN(S(=O)(=O)c1ccccc1F)CC2)C(C)(C)C [Compound 98, (S)-N-(3,3-dimethyl-1-(methylamino)-1-oxobutan-2-yl)-7-(2-fluorophenylsulfonyl)-3-phenyl-5,6,7,8-tetrahydroimidazo[1,5-a]pyrazine-1-carboxamide]
EC50 [1]: > 10000 nM | +/− RCB2 [2]: −

CNC(=O)[C@@H](NC(=O)c1nc(-c2ccccc2)n2c1CN(S(=O)(=O)c1cccc(F)c1)CC2)C(C)(C)C [Compound 99, (S)-N-(3,3-dimethyl-1-(methylamino)-1-oxobutan-2-yl)-7-(3-fluorophenylsulfonyl)-3-phenyl-5,6,7,8-tetrahydroimidazo[1,5-a]pyrazine-1-carboxamide]
EC50 [1]: > 10000 nM | +/− RCB2 [2]: −

CNC(=O)[C@@H](NC(=O)c1nc(-c2ccccc2)n2c1CN(S(=O)(=O)C1CC1)CC2)C(C)(C)C [Compound 100, (S)-7-(cyclopropylsulfonyl)-N-(3,3-dimethyl-1-(methylamino)-1-oxobutan-2-yl)-3-phenyl-5,6,7,8-tetrahydroimidazo[1,5-a]pyrazine-1-carboxamide]
EC50 [1]: > 10000 nM | +/− RCB2 [2]: −
